Data on three compounds can be found in patent US20130172324A1, “METHOD FOR TREATING CARDIOVASCULAR DISEASES USING RHO KINASE INHIBITOR COMPOUNDS” (priority 2008, published 2013).

One series concerns rat trachea rings. The series is described as follows: Tracheal relaxation assay (carbachol precontracted rings).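 On all read-outs here: isometric tension of rat tracheal rings in Krebs buffer with 1 µM indomethacin, compounds added cumulatively at 30 min intervals, basal tension subtracted, fit to Hill equation.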 The conditions noted are these: for IC50: Rattus norvegicus, read-out: IC50 Avg.
Series [1] can be described thus: Rat oral pharmacokinetics (plasma). Type of series: in vivo.
Protocol: Plasma (EDTA K2 anticoagulant) was collected from male, cannulated, CD Sprague Dawley rats to determine the pharmacokinetics of formulations containing compound inhibitors of Rho kinase. Each animal was dosed orally with a 4 ml/kg solution or suspension of each test compound in 10 mM acetate buffered saline, pH 4.5 at a final concentration range of 20-30 μmol/kg. Blood was collected at 0.25, 0.5, 1, 2, 4, 6, 8, and 24 hours. Plasma samples were assayed for the concentration of the test compound using an on-line, solid phase extraction LC/MS/MS analysis system.
Samples were analyzed on a QSTAR Elite, hybrid quadrupole time-of-flight mass spectrometer (Applied Biosystems, Framingham, Mass.) coupled with a Symbiosis Pharma integrated, on-line SPE-HPLC system (Spark Holland Inc., Plainsboro, N.J.). Analyst QS 2.0 software was used for instrument control, data acquisition and processing. […] Mobile Phase A consisted of 0.1% ammonium hydroxide in water and Mobile Phase B consisted of 0.1% formic acid in acetonitrile. Pharmacokinetic analyses were performed using WinNonlin software version 5.2 (Pharsight Corporation, Mountain View, Calif.).
As determined from the plasma concentration versus time curves, the time to peak and peak exposure are represented by the values Tmax and Cmax, respectively. The AUC values (nM*hr) shown were calculated as the areas under the plasma concentration versus time curves from time zero through the time of the last observable value and represent the total exposure of the compound over the course of the study. Half-life values or the amount of time required for the plasma levels of the compound to decline to half the initial value are represented as t1/2.
For series [2], the system named is A-10 rat thoracic aorta cells. The series is described as follows: PDGF-stimulated smooth muscle cell proliferation assay (BrdU). Type of series: cell-based. The conditions noted are these: 10 μM compound, 10 ng/mL PDGF, A-10 cells, percent of total challenge-stimulated proliferation.
Protocol: Effects on cell proliferation were measured using a bromodeoxyuridine (BrdU) incorporation assay. […] Serum free media containing 0.1% BSA was added to the cells. 24 hours later the media was removed and replaced with warmed serum free media. […] Proliferation was then monitored using the BrdU Cell Proliferation Assay, HTS (Calbiochem cat. #HTS01). BrdU was allowed to incorporate into cells for 24 hours prior to the addition of fixative/denaturing solution and the fluorometric detection of incorporated BrdU using a BrdU antibody as per manufacturer's directions. Data are reported as a percent of the PDGF-stimulated BrdU incorporation.
Series [3] has as its system ova-sensitized, ova-challenged mice. The series is described as follows: In vivo anti-inflammatory assay in ovalbumin-sensitized mice (BALF eosinophils and cytokines). The arrangement: species or system mouse. From the text: A mouse model of asthma via ovalbumin sensitization was created as described in Example 23. The anti-inflammatory dosing paradigm (FIG. 10) was utilized to evaluate the anti-inflammatory effects of experimental compounds. The anti-inflammatory dosing paradigm consists of dosing the animals once a day starting on day 27 and finishing on either day 30 or 31 (1 hr prior to the aerosolized ovalbumin challenges on days 28 to 30) but not on day 32 when hyperreactivity evaluation occurs.
Bronchoalveolar lavage fluid (BALF) was collected by infusing 3.0 ml of saline with 10% fetal calf serum into the lungs via the trachea and then withdrawing the fluid. The total amount of cells/ml of BALF fluid was determined via manual cell count on hemocytometer. The BALF was centrifuged, supernatant removed and analyzed for cytokine concentrations as described below, and cell pellet reconstituted in 500 μL of fluid. Cytospin slides were prepared from the cell pellet using 100 μL of fluid and spinning samples for 5 minutes at 5000 rpms in a cytospin centrifuge. Following Hema3 stain, relative percentages of individual leukocytes were determined on a 200 cell count for each sample. The final concentration of individual leukocyte cell types per ml of BALF was determined by multiplication of the relative percentage of individual leukocytes with the total amount of cells/ml of BALF fluid.
The concentrations of cytokines in the BALF samples were determined using commercially available Bio-plex kits (Bio-Rad) for the detection of mouse IL-5, IL-13, and Eotaxin. The analysis of cytokine levels was measured using the Bio-Plex 200 (Bio-Rad) system according to the manufacturer's instructions.

Another series deals with human eosinophils. The series is described as follows: Eotaxin-induced human eosinophil chemotaxis. Type of series: cell-based. The conditions noted are these: 1 nM eotaxin challenge; FIG. 2. From the text:
Peripheral blood from healthy human volunteers was collected and the PMNs separated via Ficoll-paque density centrifugation followed by hypotonic lysis of the red blood cells. Subsequently, the human eosinophils were isolated from the cell suspension via StemCell Technologies Human Eosinophil Enrichment kit (Cat. No 19256) according to the manufacturer's recommendations. Briefly, unwanted cells were specifically labeled with dextran-coated magnetic nanoparticles using bispecific Tetrameric Antibody Complexes (TAC) directed against cell surface antigens on human blood cells: […] The unwanted cells are then separated from the unlabelled eosinophils using the EasySep® magnetic isolation procedure.

In series [4] the test system is ova-sensitized, ova-challenged mice. The series is described as follows: Bronchodilator assay in ovalbumin-sensitized mice (Penh, methacholine). Type of series: in vivo, mouse. On the procedure:
Male BALB/c mice were ordered from Charles River Laboratories (Raleigh, N.C.). The animals were approximately 19 to 21 grams at time of receipt. Upon arrival, the animals were randomized into groups of five males per cage and assigned to a dosing group. Animals were quarantined for 7 days under test conditions. They were observed daily for general health status and ability to adapt to the water bottles.
Animals were sensitized on day 0 and 14 of study by an intraperitoneal injection with 20 μg of ovalbumin (ova) and 2.0 mg aluminum hydroxide (alum) which initiates the development of a specific T-helper (Th) cells type 2 resulting in asthmatic animals. One group of animals received an injection of saline to use as non-asthmatic control animals. All animals were challenged with aerosolized 1% ova once daily for 25 minutes on days 28, 29, and 30 (Zosky, et al. Respiratory Research. 2004; 5:15). Aerosol challenge consists of using an Aerogen Aeroneb nebulizer and controller with a particle size of 4-6 μm mass median aerodynamic diameter (MMAD) with a distribution of 400 μl per minute. This aerosol challenge is necessary to target the Th2-driven allergic inflammation in the lower airways.
The test compounds and the control vehicle were administered to animals on the day of airway hyperreactivity evaluation 30 minutes to 1 hour before the evaluation to determine the bronchodilator effects of the compounds according to the bronchodilator dosing paradigm (FIG. 8). Compounds were administered p.o. (orally), i.p. (intraperitoneally) at 15 μMol/kg unless otherwise noted (Table 6). Alternatively, compounds were administered i.t. (intratracheally) at varying doses as shown (FIG. 9). On day 32 of the experiment, airway hyperreactivity was evaluated by placing conscious, unrestrained animals in a whole body plethysmometer (Buxco Wilmington, N.C.) and exposing them to escalating doses of nebulized methacholine, a known bronchial constrictor which acts through the muscarinic receptors of the lungs, (doses: 0.325-50 mg/ml). Exposure to the methacholine doses consisted of a 3 minute period during which a nebulizer was aerosolizing the methacholine and an additional 3 minute period following the cessation of nebulization. Over this 6 minute period, the plethysmometer monitors and generates numerical values for all parameters of the breath pattern. Enhanced pause (Penh), a unitless index of airway hyperreactivity, is derived from the expiratory side of the respiratory waveform measured via the plethysmograph and is used as an indirect measure of airway resistance and hyperreactivity. […] Following the methacholine dose response, all animals were anesthetized, bled and euthanized.
Within each experiment, a mouse was given a single compound and exposed to increasing doses of methacholine [0 (baseline), 0.375, 0.75, 1.5, 3, 6, 12, 25, 50 mg/ml]. The Penh value at each of the dose levels of methacholine represents the 6-minute average response. Change from baseline (CFB) in Penh was calculated at each methacholine dose and the area under the curve (AUC) for these CFB values was calculated using the trapezoidal rule. This same approach was applied for each mouse across multiple experiments.
For statistical analyses, a linear mixed-effects model where the response was the log 10 transformed value of AUC described above was used. Data from equal experimental conditions across experiments performed on different days were pooled for statistical analysis and data reporting. The various compounds were compared adjusting for the log 10-transformed baseline value of Penh and the chamber (1 of 10) of the plethysmometer each mouse was contained in during an experiment. A random intercept for each experiment was assumed to account for possible similarities of the results obtained from a given experiment (i.e., as a “blocking effect”). […] Computations were performed using PROC MIXED (SAS Version 9.1). […]

The next series has as its system murine eosinophils. The series is described as follows: Eotaxin-induced murine eosinophil chemotaxis. In kind it is cell-based, mouse. The conditions noted are these: 10 nM eotaxin challenge; FIG. 1. On the procedure: Bronchoalveolar lavage was collected from ovalbumin sensitized and challenged mice in a volume of 2.5 mL lavage buffer. The lavage buffer was 0.9% saline with 10% fetal bovine serum. The pooled lavages were maintained on ice until use. The murine eosinophils were isolated using MACS cell separation (Miltenyi Biotech) by depletion of B cells and T cells by positive selection following incubation with antibody conjugated magnetic beads specific for CD45-R (B220) and CD90 (Thy 1.2), which bind B cells and T cells, respectively.
Eosinophil chemotaxis was assessed using a modified Boyden Chamber (Neuroprobe, 96-well) with a 5 μm pore membrane. The ability of the tested compounds to block chemotaxis induced by a 10 nM eotaxin challenge (mouse) or 1 nM eotaxin challenge (human) during one hour incubation at 37° C. with 5% CO2 was assessed. Chemotaxis was quantified via microscopy by counting the number of migrated cells in at least 3 view fields per treatment.

Series [5] deals with ova-sensitized, ova-challenged mice. The series is described as follows: Prevention of airway hyperreactivity development, anti-inflammatory dosing paradigm (Penh). Type of series: in vivo, mouse. The settings on record: oral 15 μMol/kg once a day during days 27 to 31; methacholine on Day 32.
The next series deals with rat pulmonary artery. The series is described as follows: Pulmonary arterial relaxation assay (norepinephrine precontracted rings).
The next series has as its system rat aorta. The series is described as follows: Aortal relaxation assay (norepinephrine precontracted rings). The conditions noted are these: 100 μM compound, 100 nM norepinephrine; FIG. 4B. On the procedure: This assay is a model for selecting compounds for treating diseases that involve constriction of arterial smooth muscle, such as atherosclerosis and systemic hypertension. The effects of compounds to induce relaxation of pre-contracted rat pulmonary artery and rat aorta were determined. […] Pulmonary artery or aorta were excised, cleaned of connective tissue and cut into cylindrical segments of 2-3 mm length. The preparations were mounted in a tissue bath by tying two threads of surgical silk through the lumen of the vessel. One silk was used to anchor the tissue to a metal wire in the bath and the other silk was connected to a force transducer. […] Contractile tensions were measured using an isometric force transducer (Grass Instruments) and signals were analyzed using specialized software (Chart v5.5, ADInstruments). The preparations were allowed to equilibrate at a resting tension of 0.1 to 0.2 gm for pulmonary artery and 2.0 gm for aorta prior to two challenges with 80 mM KCl to assess tissue viability. […] For pulmonary artery, compounds were added cumulatively to the bath every 30 minutes and reductions in tension were recorded. Basal tension was subtracted from all values and data was reported as a percentage of the maximal norephinephrine-induced contraction. […] For aorta, a single dose of compound was added and reductions in tension were recorded.

[6] abbreviates: rat, oral, 20-30 μmol/kg, plasma, mean of n = 3.

Protocol for rat pulmonary artery: Pulmonary artery or aorta were excised, cleaned of connective tissue and cut into cylindrical segments of 2-3 mm length. The preparations were mounted in a tissue bath by tying two threads of surgical silk through the lumen of the vessel. One silk was used to anchor the tissue to a metal wire in the bath and the other silk was connected to a force transducer. […] Contractile tensions were measured using an isometric force transducer (Grass Instruments) and signals were analyzed using specialized software (Chart v5.5, ADInstruments). The preparations were allowed to equilibrate at a resting tension of 0.1 to 0.2 gm for pulmonary artery and 2.0 gm for aorta prior to two challenges with 80 mM KCl to assess tissue viability. After washing, tissues were treated with 100 nM norepinephrine for 5 to 10 minutes to induce a contractile response. For pulmonary artery, compounds were added cumulatively to the bath every 30 minutes and reductions in tension were recorded. Basal tension was subtracted from all values and data was reported as a percentage of the maximal norephinephrine-induced contraction. Data were fit to the Hill equation using GraphPad Prism v5 software. For aorta, a single dose of compound was added and reductions in tension were recorded.
Protocol for rat trachea rings: The effects of compounds to induce relaxation of pre-contracted rat trachealis were determined. […] Trachea were excised, cleaned of connective tissue and cut into cylindrical segments of 2-3 mm length. Two stainless steel wires were guided through the lumen of the tracheal ring. One wire was fixed in the tissue bath and the other was connected to a force transducer via surgical silk. […] Indomethacin (1 μM), a cyclooxygenase inhibitor, was added to the Krebs buffer and was present throughout the experiments. Contractile tensions were measured using an isometric force transducer (Grass Instruments) and signals were analyzed using specialized software (Chart v5.5, ADInstruments). The preparations were allowed to equilibrate at a resting tension of 0.3 to 0.5 gm prior to two challenges with 60 mM KCl to assess tissue viability. After washing, tissues were treated with 1 μM carbachol for 10 to 15 minutes to induce a contractile response. Test Compounds were added cumulatively to the bath every 30 minutes and reductions in tension were recorded. Basal tension was subtracted from all values and data were reported as a percentage of the maximal carbachol-induced contraction. Data were fit to the Hill equation using GraphPad Prism v5 software.

In the case of `CSc1ccc(CN2CC[C@@H](Nc3cccc4cnccc34)C2)cc1` [Compound 2.026, (R)-N-(1-(4-(methylthio)benzyl)pyrrolidin-3-yl)isoquinolin-5-amine], the “Percentage of carbachol-induced contraction at 10 μM compound, Avg %” value (shortened to “Percentage … at 10 μM compound, Avg %”) in the series with rat trachea rings (1 μM carbachol) is listed as 17.1%. Further, the IC50 in the series with rat trachea rings was found to be 2860 nM. Besides, in series [1] (setting [6]), the “AUC (0-last)” value was “BLQ”, the Cmax entry is given as “BLQ”, the Tmax result is “BLQ” and the Vz_F entry is on record as “BLQ”. Besides, the t½ entry in [1] (setting [6]) is “BLQ”. Also, the “Percent of PDGF Induced Proliferation at 10 μM Avg” value in series [2] came to 52.0%.

Take `CS(=O)(=O)Nc1cccc(CN2CC[C@@H](Nc3cccc4cnccc34)C2)c1` [Compound 2.038, (R)-N-(3-((3-(isoquinolin-5-ylamino)pyrrolidin-1-yl)methyl)phenyl)methanesulfonamide]: the “Percentage of carbachol-induced contraction at 1 μM compound, Avg %” value with rat trachea rings (1 μM compound, 1 μM carbachol) turned out to be 57.2%. Also, the “Percentage … at 10 μM compound, Avg %” value with rat trachea rings (1 μM carbachol) was 10.2%. Further, the IC50 in the series with rat trachea rings is 272 nM. Further, the “Trachael Ring Contraction, %” value in the series with rat trachea rings (average percentage of carbachol-induced rat tracheal ring contraction at 1 μM of test compound) is recorded as 57%. The “concentration of IL-5 in BALF” value in [3] (15 μmol/kg/oral on days 27 to 31, FIG. 13) was “reduced levels”. In addition, the “concentration of Eotaxin in BALF” value in series [3] (15 μmol/kg/oral on days 27 to 31, FIG. 14) was “reduced levels”. In addition, in series [3] (15 μmol/kg/oral on days 27 to 31, FIG. 15), the “concentration of IL-13 in BALF” value is listed as “reduced levels”. Besides, the “eosinophils per ml of BALF (airway eosinophil infiltration)” value in series [3] (dosed orally to day 31, anti-inflammatory dosing paradigm, FIG. 11) is reported as “reduced”. In addition, in series [1] (oral dosing, refers to Table 13 and Table 15), the “plasma and lung tissue concentrations after oral dosing” value is “high plasma and lung tissue concentrations”. Also, in the series on human eosinophils, the “chemotactic response of human eosinophils” value was “inhibited”. For the same compound, the “log10AUC (penh)” value in [4] (15 μmol/kg oral, bronchodilator dosing paradigm) was determined as 2.0813. Further, the “reduction in airway hyperresponsiveness” value in series [4] (oral doses) is on record as “statistically significant reduction”. Further, the “chemotactic response of murine eosinophils” value with murine eosinophils was “inhibited”. Besides, the “airway hyperreactivity to methacholine” value in series [5] is recorded as “prevention of airway hyperreactivity”.

As to `OCCOc1cccc(CN2CC[C@@H](Nc3cccc4cnccc34)C2)c1` [Compound 2.039, (R)-2-(3-((3-(isoquinolin-5-ylamino)pyrrolidin-1-yl)methyl)phenoxy)ethanol], the “relaxant response in precontracted pulmonary artery” value in the series on rat pulmonary artery (100 nM norepinephrine precontracted, FIG. 4A) is given as “fully relaxed”. Moreover, the IC50 in the series on rat pulmonary artery (Rattus norvegicus, read-out: IC50 for compound-induced relaxation) amounted to 151 nM; with rat trachea rings it was 343 nM. The “Percentage … at 10 μM compound, Avg %” value in the series with rat trachea rings (1 μM carbachol) is recorded as 6.2%. Moreover, in the series with rat aorta, the “norepinephrine-induced contractile response (tension) of aortal ring” value is “fully reversed”.
